The source of these data is patent US8835458B2 (Hanmi Science Co., Ltd, priority 2010, dated 2014).

Counter-ions that a name gives are not always drawn. Like-named read-outs stand apart in the source and are kept apart here.

The nature of data set [1]: Toxicity to normal cells (SRB). In kind it is cell-based, human. As to conditions: human, Hs27 fibroblasts (normal cell line). The method, boiled down: (§1)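 GI50 values come from growth equations comparing treated, untreated and medium-only wells. Fibroblasts (Hs27, Balb/c3t3) got 72 h compound exposure with SRB read-out at 540 nm after TCA fixing. MDA-MB-231 got 120 h with MTS at 490 nm, across 10 μM˜0.1 nM.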

The nature of data set [2]: Toxicity to normal cells (SRB). The following applies: mouse, Balb/c3t3 fibroblasts (normal cell line), read-out: BalB/C (GI50). In kind it is cell-based, mouse. Put shortly:
as §1

The subject of data set [3] is MDA-MB-231 breast cancer cell lines. As to the kind of experiment: Evaluation of inhibition on cell growth (MTS). In kind it is cell-based. As to conditions: Homo sapiens, MDA-MB-231, 120 hours. The method, boiled down: as §1

Regarding `CCN1CCN(c2ccc(Nc3ncnc4cc(OC)c(NC(=O)[C@@H]5CCCN5C(=O)[C@@H](NC(=O)[C@H](C)NC)C(C)(C)C)cc34)cc2)CC1` [Example 60, (S)-1-((S)-3,3-dimethyl-2-((S)-2-(methylamino)propanamido)butanoyl)-N-(4-(4-(4-ethylpiperazin-1-yl)phenylamino)-7-methoxyquinazolin-6-yl)pyrrolidine-2-carboxamide], the GI50 at 72 h in data set [1] and in data set [2] was more than 10 µM in each case. For the same compound, in data set [3], the GI50 was 0.1 to 1 µM.

For `CN[C@@H](C)C(=O)N[C@H](C(=O)N1CCC[C@H]1C(=O)Nc1cc2c(Nc3ccc4c(c3)OCO4)ncnc2cc1OC)C(C)(C)C` [Example 61, (S)—N-(4-(benzo[d][1,3]dioxol-5-ylamino)-7-methoxyquinazolin-6-yl)-1-((S)-3,3-dimethyl-2-((S)-2-(methylamino)propanamido)butanoyl)pyrrolidine-2-carboxamide], the GI50 at 72 h in data set [1] and in data set [2] was more than 10 µM throughout. In data set [3], the GI50 is not below 1 µM.

As for `CN[C@@H](C)C(=O)N[C@H](C(=O)N1CCC[C@H]1C(=O)Nc1cc2c(Nc3cnc4ccccc4c3)ncnc2cc1OC)C(C)(C)C` [Example 62, (S)-1-((S)-3,3-dimethyl-2-((S)-2-(methylamino)propanamido)butanoyl)-N-(7-methoxy-4-(quinoline-3-ylamino)quinazolin-6-yl)pyrrolidine-2-carboxamide dihydrochloride], the GI50 at 72 h in data set [1] and in data set [2] was more than 10 µM in each case. Moreover, in data set [3], the GI50 fell in the range of 0.1 to 1 µM.

Take `CN[C@@H](C)C(=O)N[C@H](C(=O)N1CCC[C@H]1C(=O)Nc1cc2c(Nc3cccc4ncccc34)ncnc2cc1OC)C(C)(C)C` [Example 63, (S)-1-((S)-3,3-dimethyl-2-((S)-2-(methylamino)propanamido)butanoyl)-N-(7-methoxy-4-(quinoline-5-ylamino)quinazolin-6-yl)pyrrolidine-2-carboxamide hydrochloride]: the GI50 at 72 h in data set [1] and in data set [2] was more than 10 µM each time. The compound further had a GI50 in data set [3] not above 0.1 µM.

As to `CN[C@@H](C)C(=O)N[C@H](C(=O)N1CCC[C@H]1C(=O)Nc1cc2c(Nc3ccc(N(C)C)cc3)ncnc2cc1OC)C(C)(C)C` [Example 64, (S)-1-((S)-3,3-dimethyl-2-((S)-2-(methylamino)propanamido)butanoyl)-N-(7-methoxy-4-(4-dimethylamino)phenylamino)quinazolin-6-yl)pyrrolidine-2-carboxamide dihydrochloride], the GI50 at 72 h in data set [1] and in data set [2] was more than 10 µM throughout. The compound further had a GI50 in data set [3] not above 0.1 µM.

In the case of `CN[C@@H](C)C(=O)N[C@H](C(=O)N1CCC[C@H]1C(=O)Nc1cc2c(Nc3ccc(N4CCCC4)cc3)ncnc2cc1OC)C(C)(C)C` [Example 65, (S)-1-((S)-3,3-dimethyl-2-((S)-2-(methylamino)propanamido)butanoyl)-N-(7-methoxy-4-(4-(pyrrolidin-1-yl)phenylamino)quinazolin-6-yl)pyrrolidine-2-carboxamide dihydrochloride], the GI50 at 72 h in data set [1] and in data set [2] was more than 10 µM in each case. In addition, the GI50 in data set [3] is not above 0.1 µM.

`CN[C@@H](C)C(=O)N[C@H](C(=O)N1CCC[C@H]1C(=O)Nc1cc2c(Nc3ccc(N4CCCCC4)cc3)ncnc2cc1OC)C(C)(C)C` [Example 66, (S)-1-((S)-3,3-dimethyl-2-((S)-2-(methylamino)propanamido)butanoyl)-N-(7-methoxy-4-(4-(piperidin-1-yl)phenylamino)quinazolin-6-yl)pyrrolidine-2-carboxamide dihydrochloride]: the GI50 at 72 h in data set [1] and in data set [2] was more than 10 µM throughout. This compound also came in with a GI50 in data set [3] not above 0.1 µM.

For the compound `CN[C@@H](C)C(=O)N[C@H](C(=O)N1CCC[C@H]1C(=O)Nc1cc2c(Nc3ccc(N4CCN(C)CC4)cc3)ncnc2cc1OC)C(C)(C)C` [Example 67, (S)-1-((S)-3,3-dimethyl-2-((S)-2-(methylamino)propanamido)butanoyl)-N-(7-methoxy-4-(4-(4-methylpiperazin-1-yl)phenylamino)quinazolin-6-yl)pyrrolidine-2-carboxamide dihydrochloride], the GI50 at 72 h in data set [1] and in data set [2] was more than 10 µM throughout. For the same compound, in data set [3], the GI50 is not above 0.1 µM.

For `CCN(CC)c1ccc(Nc2ncnc3cc(OC)c(NC(=O)[C@@H]4CCCN4C(=O)[C@@H](NC(=O)[C@H](C)NC)C(C)(C)C)cc23)cc1` [Example 68, (S)-1-((S)-3,3-dimethyl-2-((S)-2-(methylamino)propanamido)butanoyl)-N-(7-methoxy-4-(4-diethylamino)phenylamino)quinazolin-6-yl)pyrrolidine-2-carboxamide dihydrochloride], the GI50 at 72 h in data set [1] and in data set [2] was more than 10 µM each time. In data set [3], this compound had a GI50 not above 0.1 µM.

With `CN[C@@H](C)C(=O)N[C@H](C(=O)N1CCC[C@H]1C(=O)Nc1cc2c(Nc3ccc(NC(C)=O)cc3)ncnc2cc1OC)C(C)(C)C` [Example 69, (S)—N-(4-(4-acetamidophenylamino)-7-methoxyquinazolin-6-yl)-1-((S)-3,3-dimethyl-2-((S)-2-(methylamino)propanamido)butanoyl)pyrrolidine-2-carboxamide], the GI50 at 72 h in data set [1] and in data set [2] was more than 10 µM each time. This compound also displayed a GI50 in data set [3] not above 0.1 µM.

For `CCN1CCN(c2ccc(Nc3ncnc4cc(OC)c(NC(=O)[C@@H]5CCCN5C(=O)[C@@H](NC(=O)[C@H](C)NC)C(C)(C)C)cc34)cc2C(F)(F)F)CC1` [Example 70, (S)-1-((S)-3,3-dimethyl-2-((S)-2-(methylamino)propanamido)butanoyl)-N-(4-(4-(4-ethylpiperazin-1-yl)-3-(trifluoromethyl)phenylamino)-7-methoxyquinazolin-6-yl)pyrrolidine-2-carboxamide dihydrochloride], the GI50 at 72 h in data set [1] and in data set [2] was more than 10 µM throughout. For the same compound, the GI50 in data set [3] is not above 0.1 µM.

`CCN1CCN(c2ccc(Nc3ncnc4cc(OC)c(NC(=O)[C@@H]5CCCN5C(=O)[C@@H](NC(=O)[C@H](C)NC)C(C)(C)C)cc34)cc2F)CC1` [Example 71, (S)-1-((S)-3,3-dimethyl-2-((S)-2-(methylamino)propanamido)butanoyl)-N-(4-(4-(4-ethylpiperazin-1-yl)-3-fluorophenylamino)-7-methoxyquinazolin-6-yl)pyrrolidine-2-carboxamide dihydrochloride]: the GI50 at 72 h in data set [1] and in data set [2] was more than 10 µM in each case. The compound further had a GI50 in data set [3] not above 0.1 µM.

With `CN[C@@H](C)C(=O)N[C@H](C(=O)N1CCC[C@H]1C(=O)Nc1cc2c(Nc3ccc(N4CCS(=O)(=O)CC4)cc3)ncnc2cc1OC)C(C)(C)C` [Example 72, (S)—N-(4-((1,1-dioxide-4-thiomorpholinyl)phenylamino)-7-methoxyquinazolin-6-yl)-1-((S)-3,3-dimethyl-2-((S)-2-(methylamino)propanamido)butanoyl)pyrrolidine-2-carboxamide], the GI50 at 72 h in data set [1] and in data set [2] was more than 10 µM throughout. In data set [3], this compound came in with a GI50 not above 0.1 µM.

`CN[C@@H](C)C(=O)N[C@H](C(=O)N1CCC[C@H]1C(=O)Nc1cc2c(Nc3ccncc3)ncnc2cc1OC)C(C)(C)C` [Example 73, (S)-1-((S)-3,3-dimethyl-2-((S)-2-(methylamino)propanamido)butanoyl)-N-(7-methoxy-4-(pyridin-4-ylamino)quinazolin-6-yl)pyrrolidine-2-carboxamide hydrochloride]: the GI50 at 72 h in data set [1] and in data set [2] was more than 10 µM in each case. The compound further yielded a GI50 in data set [3] not above 0.1 µM.

Turning to `CNC(=O)c1ccc(Nc2ncnc3cc(OC)c(NC(=O)[C@@H]4CCCN4C(=O)[C@@H](NC(=O)[C@H](C)NC)C(C)(C)C)cc23)cc1` [Example 74, (S)-1-((S)-3,3-dimethyl-2-((S)-2-(methylamino)propanamido)butanoyl)-N-(7-methoxy-4-(4-(methylcarbamoyl)phenylamino)quinazolin-6-yl)pyrrolidine-2-carboxamide], the GI50 at 72 h in data set [1] and in data set [2] was more than 10 µM in each case. Besides, the GI50 in data set [3] was not above 0.1 µM.

Regarding `CN[C@@H](C)C(=O)N[C@H](C(=O)N1CCC[C@H]1C(=O)Nc1cc2c(Nc3cc(NC(C)=O)ccc3Cl)ncnc2cc1OC)C(C)(C)C` [Example 75, (S)—N-(4-(5-acetamino-2-chlorophenylamino)-7-methoxyquinazolin-6-yl)-1-((S)-3,3-dimethyl-2-((S)-2-(methylamino)propanamido)butanoyl)pyrrolidine-2-carboxamide], the GI50 at 72 h in data set [1] and in data set [2] was more than 10 µM in each case. The compound also gave a GI50 in data set [3] not above 0.1 µM.

Turning to `CN[C@@H](C)C(=O)N[C@H](C(=O)N1CCC[C@H]1C(=O)Nc1cc2c(Nc3ccc(NC(=O)c4ccccc4)cc3)ncnc2cc1OC)C(C)(C)C` [Example 76, (S)—N-(4-(4-benzamidophenylamino)-7-methoxyquinazolin-6-yl)-1-((S)-3,3-dimethyl-2-((S)-2-(methylamino)propanamido)butanoyl)pyrrolidine-2-carboxamide], the GI50 at 72 h in data set [1] and in data set [2] was more than 10 µM in each case. Also, the GI50 in data set [3] was not above 0.1 µM.
